ChEMBL document CHEMBL5050846 (2020)
Activity calls are given as the source filed them. The calls are words filed in the database; no cut-off is given here.

What was measured:
[1] = Brain to plasma ratio in rat; assay type: ADME; conditions: read-out: BPR
[2] = Cmax in rat; assay type: ADME; conditions: in vivo
[3] = Half-life in rat; assay type: ADME; conditions: in vivo
Rattus norvegicus [4] = assay type: functional, organism-based; conditions: dose 100.0 mg/kg
[5] = AUClast in rat; assay type: ADME; parameters: time 0 - last; conditions: in vivo
[6] = Tmax in rat; assay type: ADME; conditions: in vivo
Rattus norvegicus [7] = assay: Protection against harmaline-induced tremor in rats at 10 mg/kg; assay type: functional, organism-based
[8] = Toxicity in rabbits at 30 to 1000 mg/kg, po assessed as maternal toxicity; assay type: organism-based, Oryctolagus cuniculus; conditions: rabbit, in vivo, 672 h, dose 30-1000 mg/kg, time 4 weeks
Rattus norvegicus [9] = assay: Effect on respiratory function in male rats assessed as change in airway resistance at 6 mg/kg, iv; assay type: toxicity, organism-based; conditions: in vivo
[10] = Toxicity in rabbits at 30 to 1000 mg/kg, po assessed as developmental toxicity; assay type: organism-based, Oryctolagus cuniculus; conditions: rabbit, in vivo, dose 30-1000 mg/kg
[11] = Toxicity in Sprague-Dawley rats at 30 to 2000 mg/kg, po assessed as micronuclei induction in bone marrow; assay type: organism-based; conditions: rat, in vivo, dose 30-2000 mg/kg
CYP3A5 = CYP3A5 (Homo sapiens, UniProt P20815); assay: Inhibition of recombinant human CYP3A5 in human liver microsomes at 1 uM relative to control; assay type: ADME
Sequence of CYP3A5 (P20815 whole entry): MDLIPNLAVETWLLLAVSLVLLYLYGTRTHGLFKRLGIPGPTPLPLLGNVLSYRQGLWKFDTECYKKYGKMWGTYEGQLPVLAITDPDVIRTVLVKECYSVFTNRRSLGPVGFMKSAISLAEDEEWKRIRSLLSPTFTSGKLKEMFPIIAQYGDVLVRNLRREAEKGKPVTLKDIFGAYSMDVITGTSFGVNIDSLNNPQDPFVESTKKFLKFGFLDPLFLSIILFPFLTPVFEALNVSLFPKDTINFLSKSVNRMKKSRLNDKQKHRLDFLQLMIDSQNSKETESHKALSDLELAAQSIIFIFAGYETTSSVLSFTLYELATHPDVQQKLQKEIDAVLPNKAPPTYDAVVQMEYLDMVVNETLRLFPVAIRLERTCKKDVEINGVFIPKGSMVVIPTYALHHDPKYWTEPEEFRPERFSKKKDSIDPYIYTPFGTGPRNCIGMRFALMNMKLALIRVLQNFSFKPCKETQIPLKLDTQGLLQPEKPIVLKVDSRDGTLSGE

Rattus norvegicus [12] = assay: Effect on neurobehavioral function in female rats at 30 mg/kg, po administered a single dose at 24 hrs; assay type: toxicity, organism-based; conditions: in vivo
[13] = Half-life in dog at 0.5 mg/kg, po; assay type: ADME, organism-based, Canis lupus familiaris; conditions: in vivo
Canis familiaris [14] = assay: Effect on heart rate in dogs at 10 mg/kg, iv; assay type: toxicity, organism-based, Canis lupus familiaris; conditions: dog, in vivo
Rattus norvegicus [15] = organism: Rattus norvegicus; assay: Effect on sleep architecture of rats assessed as increase in slow wave sleep; assay type: functional, organism-based
Canis familiaris [16] = assay: Effect on core body temperature in dogs at 2 to 300 mg/kg, iv; assay type: toxicity, organism-based, Canis lupus familiaris; conditions: dog, in vivo, dose 2-300 mg/kg
[17] = Toxicity in Beagle dogs at 3 to 300 mg/kg, po measured by 10-day extrapolatory dose-range finding study; assay type: organism-based, Canis lupus familiaris; conditions: dog, in vivo, 240 h, dose 3-300 mg/kg
[18] = Oral bioavailability in dog at 0.5 mg/kg; assay type: ADME, organism-based, Canis lupus familiaris; conditions: in vivo
Canis familiaris [19] = assay: Effect on PR interval of heart in dogs at 2 to 300 mg/kg, iv; assay type: toxicity, organism-based, Canis lupus familiaris; conditions: dog, in vivo, dose 2-300 mg/kg
Canis familiaris [20] = assay: Effect on QTc interval of heart in dogs at 10 mg/kg, iv; assay type: toxicity, organism-based, Canis lupus familiaris; conditions: dog, in vivo
[21] = Clearance in dog at 0.5 mg/kg, po; assay type: ADME, organism-based, Canis lupus familiaris; conditions: in vivo
[22] = Toxicity in Sprague-Dawley rats at 30 to 1000 mg/kg, po assessed as developmental toxicity; assay type: organism-based; conditions: rat, in vivo, dose 30-1000 mg/kg
Rattus norvegicus [23] = assay: Effect on respiratory function in female rats assessed as increase in PenH at 30 mg/kg, po; assay type: toxicity, organism-based; conditions: in vivo
Canis familiaris [24] = assay: Effect on QRS duration of heart in dogs at 2 to 300 mg/kg, iv; assay type: toxicity, organism-based, Canis lupus familiaris; conditions: dog, in vivo, dose 2-300 mg/kg
[25] = Toxicity in female Sprague-Dawley rats at 10 to 1000 mg/kg, po; assay type: organism-based; conditions: rat, in vivo, dose 10-1000 mg/kg
CYP3A4 = CYP3A4 (Homo sapiens, UniProt P08684); assay: Inhibition of recombinant human CYP3A4 in human liver microsomes at 1 uM relative to control; assay type: ADME
Sequence of CYP3A4 (P08684 whole entry): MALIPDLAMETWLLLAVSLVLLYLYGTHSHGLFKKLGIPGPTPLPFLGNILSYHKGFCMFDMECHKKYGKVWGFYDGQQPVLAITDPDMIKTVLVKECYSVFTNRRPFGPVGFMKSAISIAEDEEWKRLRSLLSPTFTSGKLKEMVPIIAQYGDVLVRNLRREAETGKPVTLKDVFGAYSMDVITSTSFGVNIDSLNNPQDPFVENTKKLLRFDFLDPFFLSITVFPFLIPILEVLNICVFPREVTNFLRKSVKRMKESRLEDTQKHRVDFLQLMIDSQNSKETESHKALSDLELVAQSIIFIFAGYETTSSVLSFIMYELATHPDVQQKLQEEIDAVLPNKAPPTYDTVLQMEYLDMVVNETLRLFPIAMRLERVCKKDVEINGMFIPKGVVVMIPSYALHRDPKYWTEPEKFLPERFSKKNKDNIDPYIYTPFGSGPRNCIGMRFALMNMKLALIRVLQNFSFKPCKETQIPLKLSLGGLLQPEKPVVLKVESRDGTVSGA

[26] = Induction of CYP3A4 mRNA production in primary human hepatocytes at 10 uM relative to control; assay type: functional, Hepatocyte
[27] = target: T1, pregnane X receptor (PXR, NR1I2) (Homo sapiens, UniProt O75469); assay: Activation of human pregnane X receptor at 10 uM relative to control; conditions: read-out: Activity
T1 sequence (O75469 whole entry): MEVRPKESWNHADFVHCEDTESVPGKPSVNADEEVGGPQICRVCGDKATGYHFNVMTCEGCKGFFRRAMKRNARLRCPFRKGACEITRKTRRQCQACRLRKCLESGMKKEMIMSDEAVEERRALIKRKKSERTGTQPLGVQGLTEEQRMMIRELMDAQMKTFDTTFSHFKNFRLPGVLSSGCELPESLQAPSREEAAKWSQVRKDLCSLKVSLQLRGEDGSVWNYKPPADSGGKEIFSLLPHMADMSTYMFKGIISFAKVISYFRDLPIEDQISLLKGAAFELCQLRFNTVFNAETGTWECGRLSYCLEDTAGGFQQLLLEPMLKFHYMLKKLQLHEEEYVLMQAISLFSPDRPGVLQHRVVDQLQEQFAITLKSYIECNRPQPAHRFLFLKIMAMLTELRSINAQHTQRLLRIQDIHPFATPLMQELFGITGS

[28] = Toxicity in rats at 10 to 1000 mg/kg, po assessed as developmental toxicity; assay type: organism-based; conditions: rat, in vivo, dose 10-1000 mg/kg
Canis familiaris [29] = assay: Effect on QRS duration of heart in dogs at 10 mg/kg, iv; assay type: toxicity, organism-based, Canis lupus familiaris; conditions: dog, in vivo
Hepatocyte = assay: Induction of […] mRNA production in primary human hepatocytes at 10 uM relative to control; assay type: functional, cell-based
[30] = Plasma concentration in male rats at 25 mg/kg, po at 2 hrs using 1% methylcellulose; assay type: ADME, organism-based; conditions: rat
Canis familiaris [31] = assay: Effect on blood pressure in dogs at 2 to 300 mg/kg, iv; assay type: toxicity, organism-based, Canis lupus familiaris; conditions: dog, in vivo, dose 2-300 mg/kg
Rattus norvegicus [32] = assay: Effect on respiratory function in female rats assessed as increase in PenH at 300 to 2000 mg/kg, po; assay type: toxicity, organism-based; conditions: in vivo, dose 300-2000 mg/kg
Rattus norvegicus [33] = organism: Rattus norvegicus; assay: Effect on sleep architecture of rats assessed as decrease in rapid eye movement sleep early in sleep period; assay type: functional, organism-based
[34] = Toxicity in Sprague-Dawley rats at 30 to 1000 mg/kg, po assessed as maternal toxicity; assay type: organism-based; conditions: rat, in vivo, dose 30-1000 mg/kg
Canis familiaris [35] = assay: Effect on QTc interval of heart in dogs at 2 to 300 mg/kg, iv; assay type: toxicity, organism-based, Canis lupus familiaris; conditions: dog, in vivo, dose 2-300 mg/kg
Rattus norvegicus [36] = organism: Rattus norvegicus; assay: Effect on sleep architecture of rats assessed as increase in rapid eye movement sleep late in sleep period; assay type: functional, organism-based
Rattus norvegicus [37] = assay: Protection against amphetamine-induced psycho-motor activity in rat at 1 to 10 mg/kg, po; assay type: functional, organism-based; conditions: dose 1-10 mg/kg
[38] = Toxicity in female Sprague-Dawley rats at 10 to 1000 mg/kg, po assessed as effect on fertility; assay type: organism-based; conditions: rat, in vivo, dose 10-1000 mg/kg
Rattus norvegicus [39] = assay: Effect on neurobehavioral function in female rats at 30 mg/kg, po administered a single dose at 2 hrs; assay type: toxicity, organism-based; conditions: in vivo
[40] = Brain concentration in male rats at 25 mg/kg, po at 2 hrs using 90% PEG400; assay type: ADME, organism-based; conditions: rat, read-out: Drug uptake
Rattus norvegicus [41] = assay type: functional, organism-based; conditions: dose 10.0 mg/kg
Rattus norvegicus [42] = assay type: functional, organism-based; conditions: dose 3-30 mg/kg
Rattus norvegicus [43] = assay: Effect on neurobehavioral function in female rats assessed as increase in foot splay width at 15 mg/kg, po administered a single dose; assay type: toxicity, organism-based; conditions: in vivo
Rattus norvegicus [44] = assay: Effect on neurobehavioral function in female rats at 30 to 3000 mg/kg, po; assay type: toxicity, organism-based; conditions: in vivo, dose 30-3000 mg/kg
[45] = Plasma concentration in male rats at 25 mg/kg, po at 2 hrs using 90% PEG400; assay type: ADME, organism-based; conditions: rat
[46] = Brain concentration in male rats at 25 mg/kg, po at 2 hrs using 1% methylcellulose; assay type: ADME, organism-based; conditions: rat, read-out: Drug uptake

**Q.** What does the source list for N#Cc1ccc([C@@]2(C3CC3)c3cc(Cl)ccc3NC(=O)N2CC(F)(F)F)cc1?
**A.** Kp [1]: 1.1; Cmax [2]: 3 µM; half-life [3]: 5.9 h

**Q.** With CCC1(C)CC(=O)NC1=O (configuration not stated) as the molecule, how does the Activity (Rattus norvegicus [4]) read?
**A.** Active

**Q.** For C[C@@H](NC(=O)Cc1ccc(C2CC2)cc1)c1ccc(OCC(F)(F)F)cn1, which AUC(0-t) [5] is on record?
**A.** 30 µM·h

**Q.** What about the Kp [1] of the same molecule?
**A.** 0.27

**Q.** What about the Cmax [2] of the same molecule?
**A.** 7.5 µM

**Q.** And the half-life [3]?
**A.** 1.5 h

**Q.** And the Tmax [6]?
**A.** 0.3 h

**Q.** With CC1(C)C[C@@H](CN2CCC(F)(CNC(=O)c3cc(Cl)cc(Cl)c3)CC2)CCO1 as the molecule, how does the Activity (Rattus norvegicus [7]) read?
**A.** Active

**Q.** Which results are given for CC(C)c1ccc(CC(=O)N[C@H](C)c2ccc(OCC(F)(F)F)cn2)cc1 [SUVECALTAMIDE]?
**A.** Activity [8]: Toxic; Activity (Rattus norvegicus [9]): Non-Toxic; Activity [10]: Toxic; Activity [11]: Non-Toxic; inhibition at 1 µM (CYP3A5): > 80%; Activity (Rattus norvegicus [12]): Non-Toxic; t1/2 [13]: 3.1 h; Activity (Canis familiaris [14]): Non-Toxic; Activity (Rattus norvegicus [15]): Active; Activity (Canis familiaris [16]): Non-Toxic; Activity [17]: Non-Toxic; bioavailability [18]: 47%; Activity (Canis familiaris [19]): Non-Toxic; Activity (Canis familiaris [20]): Non-Toxic; CL/F [21]: 0.4 mL/min/kg; Activity [22]: Toxic; Activity (Rattus norvegicus [23]): Non-Toxic; Activity (Canis familiaris [24]): Non-Toxic; NOAEL [25]: 100 mg/kg/day; inhibition at 1 µM (CYP3A4): > 80%; Activity [26]: <=10%; activity at 10 µM [27]: ≤ 34%; Activity [28]: Non-Toxic; Activity (Canis familiaris [29]): Non-Toxic; Activity (Hepatocyte): Active; concentration at 2 h [30]: 6.3 µM; Activity (Canis familiaris [31]): Non-Toxic; Activity (Rattus norvegicus [32]): Non-Toxic; Activity (Rattus norvegicus [33]): Active; Activity [34]: Toxic; Activity (Canis familiaris [35]): Non-Toxic; Activity (Rattus norvegicus [36]): Active; Activity (Rattus norvegicus [37]): Active; NOAEL [38]: ≥ 1000 mg/kg/day; Activity (Rattus norvegicus [39]): Non-Toxic; concentration at 2 h [40]: 1.8 µM; Activity (Rattus norvegicus [41]): Active; Activity (Rattus norvegicus [42]): Active; Activity (Rattus norvegicus [43]): Toxic; Activity (Rattus norvegicus [44]): Non-Toxic; concentration at 2 h [45]: 3.3 µM; concentration at 2 h [46]: 3.1 µM
